Test results from PubChem BioAssay (NCI).
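GI50 is the concentration that inhibits growth by half. Definition used: TGI = concentration required for complete inhibition of growth.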

Legend:
Experiment in all cases: inhibition of tumour cell growth, NCI panel, 384-well format
OVCAR-8 ovarian = system: OVCAR-8 ovarian
M14 melanoma = system: M14 melanoma
CCRF-CEM leukemia = system: CCRF-CEM leukemia
RXF 393 renal = system: RXF 393 renal
SK-OV-3 ovarian = system: SK-OV-3 ovarian
BT-549 breast = system: BT-549 breast
CAKI-1 renal = system: CAKI-1 renal
HCC-2998 colon = system: HCC-2998 colon
MDA-MB-435 melanoma = system: MDA-MB-435 melanoma
IGROV1 ovarian = system: IGROV1 ovarian
K-562 leukemia = system: K-562 leukemia
HOP-62 NSCLC = system: HOP-62 NSCLC
UACC-257 melanoma = system: UACC-257 melanoma
OVCAR-5 ovarian = system: OVCAR-5 ovarian
MALME-3M melanoma = system: MALME-3M melanoma
SN12C renal = system: SN12C renal
LOX IMVI melanoma = system: LOX IMVI melanoma
NCI-H322M lung = system: NCI-H322M lung
NCI-H226 lung = system: NCI-H226 lung
SNB-75 CNS = system: SNB-75 CNS
OVCAR-3 ovarian = system: OVCAR-3 ovarian
HS 578T breast = system: HS 578T breast
NCI-H460 NSCLC = system: NCI-H460 NSCLC
SR leukemia = system: SR leukemia
NCI-H522 lung = system: NCI-H522 lung
SF-295 CNS = system: SF-295 CNS
HT29 colon = system: HT29 colon
ACHN renal = system: ACHN renal
SW-620 colon = system: SW-620 colon
SK-MEL-28 melanoma = system: SK-MEL-28 melanoma
KM12 colon = system: KM12 colon
MDA-MB-231 breast = system: MDA-MB-231 breast
TK-10 renal = system: TK-10 renal
DU-145 prostate = system: DU-145 prostate
SNB-19 CNS = system: SNB-19 CNS
NCI/ADR-RES ovarian = system: NCI/ADR-RES ovarian
UO-31 renal = system: UO-31 renal
MOLT-4 leukemia = system: MOLT-4 leukemia
A498 renal = system: A498 renal
HOP-92 NSCLC = system: HOP-92 NSCLC
NCI-H23 lung = system: NCI-H23 lung
HL-60(TB) leukemia = system: HL-60(TB) leukemia
PC-3 prostate = system: PC-3 prostate
A549 NSCLC = system: A549 NSCLC
RPMI-8226 leukemia = system: RPMI-8226 leukemia
EKVX NSCLC = system: EKVX NSCLC
786-0 renal = system: 786-0 renal
COLO 205 colon = system: COLO 205 colon
HCT-15 colon = system: HCT-15 colon
T-47D breast = system: T-47D breast
OVCAR-4 ovarian = system: OVCAR-4 ovarian
SF-268 CNS = system: SF-268 CNS
SF-539 CNS = system: SF-539 CNS
SK-MEL-5 melanoma = system: SK-MEL-5 melanoma
MCF7 breast = system: MCF7 breast
UACC-62 melanoma = system: UACC-62 melanoma

CCN1Cc2c(ccc(F)c2C#N)O[C@@H](C)CNC(=O)c2c(N)nn3ccc1nc23
GI50 (OVCAR-8 ovarian): 2740 nM
TGI (OVCAR-8 ovarian): 13800 nM
GI50 (M14 melanoma): 364 nM
TGI (M14 melanoma): 1850 nM
GI50 (CCRF-CEM leukemia): 566 nM
TGI (CCRF-CEM leukemia): 10800 nM
GI50 (RXF 393 renal): 1320 nM
TGI (RXF 393 renal): 7180 nM
GI50 (SK-OV-3 ovarian): 282 nM
TGI (SK-OV-3 ovarian): 2360 nM
GI50 (BT-549 breast): 2680 nM
TGI (BT-549 breast): 15300 nM
GI50 (CAKI-1 renal): 523 nM
TGI (CAKI-1 renal): 1840 nM
GI50 (HCC-2998 colon): 4120 nM
TGI (HCC-2998 colon): 20900 nM
GI50 (MDA-MB-435 melanoma): 565 nM
TGI (MDA-MB-435 melanoma): 10500 nM
GI50 (IGROV1 ovarian): 566 nM
TGI (IGROV1 ovarian): 3350 nM
GI50 (K-562 leukemia): 66.4 nM
TGI (K-562 leukemia): 222 nM
GI50 (HOP-62 NSCLC): 1210 nM
TGI (HOP-62 NSCLC): 11200 nM
GI50 (UACC-257 melanoma): 1020 nM
TGI (UACC-257 melanoma): 4890 nM
GI50 (OVCAR-5 ovarian): 735 nM
TGI (OVCAR-5 ovarian): 9020 nM
GI50 (MALME-3M melanoma): 436 nM
TGI (MALME-3M melanoma): 2410 nM
GI50 (SN12C renal): 613 nM
TGI (SN12C renal): 4690 nM
GI50 (LOX IMVI melanoma): 529 nM
TGI (LOX IMVI melanoma): 1980 nM
GI50 (NCI-H322M lung): 2200 nM
TGI (NCI-H322M lung): 18800 nM
GI50 (NCI-H226 lung): 1280 nM
TGI (NCI-H226 lung): 4700 nM
GI50 (SNB-75 CNS): 892 nM
TGI (SNB-75 CNS): 5370 nM
GI50 (OVCAR-3 ovarian): 1420 nM
TGI (OVCAR-3 ovarian): 11200 nM
GI50 (HS 578T breast): 381 nM
TGI (HS 578T breast): 1950 nM
GI50 (NCI-H460 NSCLC): 426 nM
TGI (NCI-H460 NSCLC): 11400 nM
GI50 (SR leukemia): 310 nM
TGI (SR leukemia): 1020 nM
GI50 (NCI-H522 lung): 528 nM
TGI (NCI-H522 lung): 14300 nM
GI50 (SF-295 CNS): 153 nM
TGI (SF-295 CNS): 3020 nM
GI50 (HT29 colon): 694 nM
TGI (HT29 colon): 12400 nM
GI50 (ACHN renal): 385 nM
TGI (ACHN renal): 2060 nM
GI50 (SW-620 colon): 3820 nM
TGI (SW-620 colon): 16400 nM
GI50 (SK-MEL-28 melanoma): 620 nM
TGI (SK-MEL-28 melanoma): 3760 nM
TGI (KM12 colon): 14700 nM
GI50 (MDA-MB-231 breast): 438 nM
TGI (MDA-MB-231 breast): 1970 nM
GI50 (TK-10 renal): 868 nM
TGI (TK-10 renal): 6620 nM
GI50 (DU-145 prostate): 465 nM
TGI (DU-145 prostate): 2880 nM
GI50 (SNB-19 CNS): 2840 nM
TGI (SNB-19 CNS): 12700 nM
GI50 (NCI/ADR-RES ovarian): 3890 nM
TGI (NCI/ADR-RES ovarian): 15800 nM
GI50 (UO-31 renal): 2650 nM
TGI (UO-31 renal): 16300 nM
GI50 (MOLT-4 leukemia): 198 nM
TGI (MOLT-4 leukemia): 478 nM
GI50 (A498 renal): 379 nM
TGI (A498 renal): 7560 nM
GI50 (HOP-92 NSCLC): 362 nM
TGI (HOP-92 NSCLC): 1850 nM
GI50 (NCI-H23 lung): 264 nM
TGI (NCI-H23 lung): 3480 nM
GI50 (HL-60(TB) leukemia): 1140 nM
TGI (HL-60(TB) leukemia): 3010 nM
GI50 (PC-3 prostate): 1380 nM
TGI (PC-3 prostate): 17600 nM
GI50 (A549 NSCLC): 585 nM
TGI (A549 NSCLC): 12100 nM
GI50 (RPMI-8226 leukemia): 205 nM
TGI (RPMI-8226 leukemia): 598 nM
GI50 (EKVX NSCLC): 563 nM
TGI (EKVX NSCLC): 10300 nM
GI50 ([…]-0 renal): 1340 nM
TGI (786-0 renal): 12900 nM
GI50 (COLO 205 colon): 271 nM
TGI (COLO 205 colon): 1010 nM
GI50 (HCT-15 colon): 757 nM
TGI (HCT-15 colon): 10300 nM
GI50 (T-47D breast): 946 nM
TGI (T-47D breast): 12300 nM
GI50 (OVCAR-4 ovarian): 2400 nM
TGI (OVCAR-4 ovarian): 17300 nM
GI50 (SF-268 CNS): 1760 nM
TGI (SF-268 CNS): 11900 nM
GI50 (SF-539 CNS): 3070 nM
TGI (SF-539 CNS): 13800 nM
GI50 (SK-MEL-5 melanoma): 395 nM
TGI (SK-MEL-5 melanoma): 5310 nM
GI50 (MCF7 breast): 3160 nM
TGI (MCF7 breast): 19400 nM
GI50 (UACC-62 melanoma): 454 nM
TGI (UACC-62 melanoma): 2520 nM
